Measured values: ChEMBL document CHEMBL5042489, “Inhibitors of the Hippo Pathway Kinases STK3/MST2 and STK4/MST1 Have Utility for the Treatment of Acute Myeloid Leukemia” (J Med Chem, 2022)
The source made the active and inactive calls. No cut-off for these calls is given here.

B1: Serine/threonine-protein kinase 4 (Homo sapiens), Q13043 (protein)
chain: METVQLRNPPRRQLKKLDEDSLTKQPEEVFDVLEKLGEGSYGSVYKAIHKETGQIVAIKQVPVESDLQEIIKEISIMQQCDSPHVVKYYGSYFKNTDLWIVMEYCGAGSVSDIIRLRNKTLTEDEIATILQSTLKGLEYLHFMRKIHRDIKAGNILLNTEGHAKLADFGVAGQLTDTMAKRNTVIGTPFWMAPEVIQEIGYNCVADIWSLGITAIEMAEGKPPYADIHPMRAIFMIPTNPPPTFRKPELWSDNFTDFVKQCLVKSPEQRATATQLLQHPFVRSAKGVSILRDLINEAMDVKLKRQESQQREVDQDDEENSEEDEMDSGTMVRAVGDEMGTVRVASTMTDGANTMIEHDDTLPSQLGTMVINAEDEEEEGTMKRRDETMQPAKPSFLEYFEQKEKENQINSFGKSVPGPLKNSSDWKIPQDGDYEFLKSWTVEDLQKRLLALDPMMEQEIEEIRQKYQSKRQPILDAIEAKKRRQQNF

Columns and labels:
[1] = Drug concentration in C57BL/6 mouse plasma at 20 mg/kg, ip measured after 30 mins by LC-MS/MS analysis; type: ADME, organism-based
[2] = target: T1, Serine/threonine-protein kinase 4 (Homo sapiens, UniProt Q13043)
T1 sequence (Q13043 whole entry): B1 chain

[3] = target: Leucine-rich repeat serine/threonine-protein kinase 2 (Homo sapiens, UniProt Q5S007); test: Displacement of K5 tracer from full length C-terminal NanoLuc fused human LRRK2 expressed in HEK293T cells incubated for 2 hrs by NanoBRET assay; type: cell-based
Leucine-rich repeat serine/threonine-protein kinase 2, sequence (Q5S007 whole entry, the tested form may be a part): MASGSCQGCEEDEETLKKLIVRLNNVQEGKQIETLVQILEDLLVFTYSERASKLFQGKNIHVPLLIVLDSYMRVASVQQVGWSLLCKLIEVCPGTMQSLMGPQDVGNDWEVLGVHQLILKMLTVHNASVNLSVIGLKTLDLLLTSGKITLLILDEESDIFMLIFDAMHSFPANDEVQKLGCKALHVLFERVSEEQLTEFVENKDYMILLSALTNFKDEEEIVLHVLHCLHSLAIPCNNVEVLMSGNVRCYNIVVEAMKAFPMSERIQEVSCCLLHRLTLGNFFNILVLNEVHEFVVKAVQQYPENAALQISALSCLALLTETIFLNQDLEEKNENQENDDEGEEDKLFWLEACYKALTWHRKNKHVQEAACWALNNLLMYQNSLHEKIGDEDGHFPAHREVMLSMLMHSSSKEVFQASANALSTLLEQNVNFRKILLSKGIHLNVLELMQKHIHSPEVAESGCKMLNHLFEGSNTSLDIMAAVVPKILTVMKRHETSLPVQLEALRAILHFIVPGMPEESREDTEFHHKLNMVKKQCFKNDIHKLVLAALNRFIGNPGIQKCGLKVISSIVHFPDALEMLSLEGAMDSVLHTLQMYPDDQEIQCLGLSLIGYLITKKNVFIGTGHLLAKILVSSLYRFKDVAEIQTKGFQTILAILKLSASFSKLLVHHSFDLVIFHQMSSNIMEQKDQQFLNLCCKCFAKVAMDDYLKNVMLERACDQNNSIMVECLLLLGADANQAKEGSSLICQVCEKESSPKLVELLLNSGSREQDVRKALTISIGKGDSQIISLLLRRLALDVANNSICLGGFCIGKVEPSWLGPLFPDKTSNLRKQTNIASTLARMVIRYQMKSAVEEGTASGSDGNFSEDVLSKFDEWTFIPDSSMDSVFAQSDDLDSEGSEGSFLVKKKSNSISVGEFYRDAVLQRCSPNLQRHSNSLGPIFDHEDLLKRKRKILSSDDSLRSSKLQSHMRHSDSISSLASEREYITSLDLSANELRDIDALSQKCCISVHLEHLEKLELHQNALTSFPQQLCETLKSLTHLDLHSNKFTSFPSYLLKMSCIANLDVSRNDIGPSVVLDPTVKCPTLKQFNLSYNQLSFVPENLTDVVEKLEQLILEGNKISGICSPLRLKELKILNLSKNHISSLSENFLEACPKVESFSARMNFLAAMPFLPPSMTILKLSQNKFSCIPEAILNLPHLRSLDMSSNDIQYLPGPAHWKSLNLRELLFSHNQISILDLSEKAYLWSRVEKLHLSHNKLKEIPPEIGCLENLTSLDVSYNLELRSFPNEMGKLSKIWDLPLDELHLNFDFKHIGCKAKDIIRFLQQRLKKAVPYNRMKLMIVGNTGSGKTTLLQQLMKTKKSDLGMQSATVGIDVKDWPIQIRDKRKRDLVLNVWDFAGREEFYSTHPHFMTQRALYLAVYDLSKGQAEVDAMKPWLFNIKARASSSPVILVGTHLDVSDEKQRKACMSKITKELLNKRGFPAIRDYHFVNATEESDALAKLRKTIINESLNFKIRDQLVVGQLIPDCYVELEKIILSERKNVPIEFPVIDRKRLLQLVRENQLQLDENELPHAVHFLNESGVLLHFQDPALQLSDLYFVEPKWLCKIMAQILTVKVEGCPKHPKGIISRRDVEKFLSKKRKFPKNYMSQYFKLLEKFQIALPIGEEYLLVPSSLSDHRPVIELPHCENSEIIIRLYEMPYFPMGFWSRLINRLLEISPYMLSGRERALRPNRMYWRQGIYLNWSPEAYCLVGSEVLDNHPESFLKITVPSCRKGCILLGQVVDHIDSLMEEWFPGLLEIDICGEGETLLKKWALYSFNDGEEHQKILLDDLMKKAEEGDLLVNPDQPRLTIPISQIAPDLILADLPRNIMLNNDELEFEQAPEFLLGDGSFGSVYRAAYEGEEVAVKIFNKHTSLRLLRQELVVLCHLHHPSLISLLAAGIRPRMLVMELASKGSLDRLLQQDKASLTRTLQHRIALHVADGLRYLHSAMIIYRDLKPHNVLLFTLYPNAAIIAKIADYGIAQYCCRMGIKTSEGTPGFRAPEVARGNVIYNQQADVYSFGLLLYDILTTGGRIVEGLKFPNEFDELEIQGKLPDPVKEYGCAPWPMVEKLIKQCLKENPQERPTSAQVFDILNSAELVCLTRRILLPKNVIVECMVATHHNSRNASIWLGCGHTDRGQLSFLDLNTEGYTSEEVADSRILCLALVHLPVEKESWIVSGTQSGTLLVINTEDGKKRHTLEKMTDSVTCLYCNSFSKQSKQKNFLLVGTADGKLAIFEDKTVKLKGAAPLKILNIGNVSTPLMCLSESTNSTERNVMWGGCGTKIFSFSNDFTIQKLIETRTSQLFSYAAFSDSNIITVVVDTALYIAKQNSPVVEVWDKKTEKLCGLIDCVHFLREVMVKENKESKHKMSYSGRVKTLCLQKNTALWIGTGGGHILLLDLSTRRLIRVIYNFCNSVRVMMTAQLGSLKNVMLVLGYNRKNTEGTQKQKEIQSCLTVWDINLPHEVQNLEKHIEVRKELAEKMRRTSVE

[4] = target: T1, Serine/threonine-protein kinase 4; test: Binding affinity to recombinant N-terminal His6-tagged human STK4 (43 to 431 residues) expressed in Escherichia coli assessed as dissociation constant by isothermal titration calorimetry
[5] = target: T1, Serine/threonine-protein kinase 4; remark: listed apart in the source
[6] = target: T1, Serine/threonine-protein kinase 4; remark: listed apart in the source
Description: Displacement of K5 tracer from full length C-terminal NanoLuc fused human STK4 expressed in HEK293T cells incubated for 2 hrs by NanoBRET assay

[7] = target: T2, Serine/threonine-protein kinase 4 (Homo sapiens) (UniProt Q13043); settings: dose 20.0 µM
T2 sequence (whole entry): B1 chain
Description: Inhibition of recombinant N-terminal His6-tagged human STK4 (43 to 431 residues) expressed in Escherichia coli assessed as melting temperature at 20 uM by thermal shift assay (Rvb = 55 degreeC)

[8] = target: T3, Serine/threonine-protein kinase 3 (Homo sapiens, UniProt Q13188)
T3 sequence (Q13188 whole entry): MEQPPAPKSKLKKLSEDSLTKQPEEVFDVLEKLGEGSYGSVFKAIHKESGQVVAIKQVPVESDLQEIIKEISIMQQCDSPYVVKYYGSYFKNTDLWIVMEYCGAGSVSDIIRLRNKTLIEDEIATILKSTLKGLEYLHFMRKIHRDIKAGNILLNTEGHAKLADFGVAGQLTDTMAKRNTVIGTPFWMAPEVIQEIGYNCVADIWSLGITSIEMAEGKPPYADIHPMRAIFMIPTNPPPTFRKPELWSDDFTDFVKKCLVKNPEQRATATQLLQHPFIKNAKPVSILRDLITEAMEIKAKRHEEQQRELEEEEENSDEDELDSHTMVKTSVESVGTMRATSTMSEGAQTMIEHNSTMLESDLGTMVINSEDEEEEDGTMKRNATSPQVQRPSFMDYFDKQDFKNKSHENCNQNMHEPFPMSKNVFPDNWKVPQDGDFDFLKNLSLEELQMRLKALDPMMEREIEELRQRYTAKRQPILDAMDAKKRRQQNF

[9] = target: T3, Serine/threonine-protein kinase 3; remark: listed apart in the source
Description: Displacement of K5 tracer from full length C-terminal NanoLuc fused human STK3 expressed in HEK293T cells incubated for 2 hrs by NanoBRET assay

[10] = target: T4, Serine/threonine-protein kinase 3 (Homo sapiens) (UniProt Q13188); test: Inhibition of STK3 in HEK293 cells assessed as increase in YAP/TAZ-TEAD activity at 10 uM incubated for 48 hrs by Dual-Glo luciferase assay; type: cell-based
T4 sequence (whole entry): T3 sequence (Q13188 whole entry)

[11] = target: T4, Serine/threonine-protein kinase 3 (Homo sapiens); test: Inhibition of recombinant N-terminal His6-tagged human STK3 (18 to 311 residues) expressed in Escherichia coli assessed as melting temperature at 20 uM by thermal shift assay
[12] = target: T3, Serine/threonine-protein kinase 3; test: Binding affinity to recombinant N-terminal His6-tagged human STK3 (18 to 311 residues) expressed in Escherichia coli assessed as dissociation constant by isothermal titration calorimetry
[13] = substrate: Clc1cccc(-c2c[nH]c3ncnc(N4CCOCC4)c23)c1; settings: Homo sapiens; time 165.0 min

Molecule	concentration at 0.5 h [1]	IC50 [3]	IC50 [8]	further results
Clc1cccc(-c2c[nH]c3ncnc(N4CCOCC4)c23)c1	> 1400 nM	264 nM	–	IC50 [2]: 35 nM; Kd [4]: 147 nM; Ki [5]: 50 nM; IC50 [6]: 320 nM; Tm [7]: 63.8 °C
c1csc(-c2c[nH]c3ncnc(N4CCOCC4)c23)c1	–	–	267 nM	–
CNC1CCN(c2ncnc3[nH]cc(-c4cccc(Cl)c4)c23)CC1	> 1400 nM	3540 nM	–	–
Clc1cccc(-c2c[nH]c3ncnc(NCC4CC4)c23)c1	–	–	213 nM	–
c1ccc(-c2c[nH]c3ncnc(N4CCOCC4)c23)cc1	–	–	197 nM	IC50 [2]: 183 nM
Clc1cccc(-c2n[nH]c3ncnc(N4CCOCC4)c23)c1	–	–	4800 nM	IC50 [2]: 1610 nM
CN1C(=O)c2sccc2N(C)c2nc(Nc3ccc(S(N)(=O)=O)cc3)ncc21	–	–	–	IC50 [6]: 1040 nM
N#Cc1cccc(-c2c[nH]c3ncnc(N4CCOCC4)c23)c1	–	84 nM	–	IC50 [9]: 197 nM
COc1cccc(-c2c[nH]c3ncnc(N4CCOCC4)c23)c1	–	–	766 nM	–
Fc1ccc(-c2c[nH]c3ncnc(N4CCOCC4)c23)cc1	> 1400 nM	–	766 nM	–
Cc1ccc(-c2c[nH]c3ncnc(N4CCOCC4)c23)cc1	–	–	2020 nM	inhibition [10]: inactive
OCCCNc1ncnc2[nH]cc(-c3cccc(Cl)c3)c12	> 1400 nM	2490 nM	173 nM	IC50 [9]: 668 nM
COc1ccccc1-c1c[nH]c2ncnc(N3CCOCC3)c12	–	–	230 nM	–
CC(CO)CN(C)c1ncnc2[nH]cc(-c3cccc(Cl)c3)c12 (stereo not given)	> 1400 nM	7140 nM	58 nM	IC50 [2]: 38 nM; IC50 [9]: 289 nM; IC50 [6]: 444 nM
CCN(CCO)c1ncnc2[nH]cc(-c3cccc(Cl)c3)c12	–	–	226 nM	–
Clc1cccc(-c2c[nH]c3ncnc(N4CCCCC4)c23)c1	> 1400 nM	1140 nM	167 nM	IC50 [9]: 1100 nM; ΔTm [11]: > 5.2 °C

Molecule	concentration at 0.5 h [1]	IC50 [3]	IC50 [8]	further results
Fc1ccccc1-c1c[nH]c2ncnc(N3CCOCC3)c12	–	–	558 nM	–
Clc1cccc(-c2c[nH]c3ccnc(N4CCOCC4)c23)c1	–	–	> 10000 nM	–
CC1(N)CCN(c2ncnc3[nH]cc(-c4cccc(Cl)c4)c23)CC1	> 1400 nM	–	278 nM	–
Cc1cccc(-c2c[nH]c3ncnc(N4CCOCC4)c23)c1	> 1400 nM	127 nM	121 nM	IC50 [9]: 434 nM
c1nc(N2CCOCC2)c2c(-c3ccoc3)c[nH]c2n1	–	–	986 nM	–
Fc1cccc(-c2c[nH]c3ncnc(N4CCOCC4)c23)c1	> 1400 nM	246 nM	191 nM	inhibition [10]: Active; IC50 [9]: 373 nM; ΔTm [11]: > 5.2 °C
CC1(O)CCN(c2ncnc3[nH]cc(-c4cccc(Cl)c4)c23)CC1	–	–	189 nM	–
CN(CCO)c1ncnc2[nH]cc(-c3cccc(Cl)c3)c12	> 1400 nM	1520 nM	117 nM	IC50 [2]: 79 nM; IC50 [9]: 631 nM; IC50 [6]: 406 nM
Clc1cccc(-c2csc3ncnc(N4CCOCC4)c23)c1	–	–	> 10000 nM	–
Clc1cccc(-c2coc3ncnc(N4CCOCC4)c23)c1	–	–	> 10000 nM	–
Clc1cccc(-c2c[nH]c3nccc(N4CCOCC4)c23)c1	> 1400 nM	121 nM	119 nM	inhibition [10]: Active; IC50 [2]: 66 nM; IC50 [9]: 373 nM; Kd [4]: 158 nM; Kd [12]: 48 nM; IC50 [6]: 192 nM; Tm [7]: 63.6 °C
CN(C)c1ncnc2[nH]cc(-c3cccc(Cl)c3)c12	–	–	349 nM	–
c1coc(-c2c[nH]c3ncnc(N4CCOCC4)c23)c1	–	–	487 nM	–
Cc1ccccc1-c1c[nH]c2ncnc(N3CCOCC3)c12	–	–	6900 nM	inhibition [10]: inactive; IC50 [2]: 2400 nM
B1	–	–	–	Km [13]: 140 µM
